# Test results from patent publication US20050049228A1, “Antimicrobial photodynamic therapy compound and method of use” (CeramOptec Industries Inc., priority 2003, published 2005).
# What was measured:
# Assay in all cases: Photodynamic inactivation of bacterial cell suspensions (CFU count after 532 nm laser irradiation)
# Type in all cases: cell-based
# [1] = system: Pseudomonas aeruginosa DSM 1117 (ATCC 27853); conditions: in presence of blood serum or plasma in the treatment suspensions, 10 μM, 100 μM, 1 mM, 30 min dark incubation, about 100 J/cm^2
# Description: (§1) The organisms used in our studies were three members of the microflora of wounds: Staphylococcus aureus DSM1104 (A TCC 25923), Gram-positive; Escherichia coli DSM 8698, Gram-negative; Pseudomonas aeruginosa DSM 1117 (ATCC 27853), Gram-negative. All strains were grown aerobically overnight at 37° C. in Tryptic Soy Broth (Merck KGaA Darmstadt, Germany). Cells were harvested by centrifugation and resuspended in sterile phosphate-buffered saline (PBS) or sterile PBS supplemented with 10% sterile horse blood serum (Oxoid), 10% human plasma or 10% human blood (both freshly obtained from donors), respectively. The final OD (Optical Density) at 600 nm, 1 cm in all cases was 0.03.
# (§2) Aliquots (190 μl) of the bacterial suspensions were placed into sterile black 96 well plates with clear bottom (Costar® 3603, Corning Inc., USA). 10 μl of three different Safranin O stock solutions were added to obtain the final photosensitizer concentrations of 10 μM, 100 μM and 1 mM, respectively. The plates were incubated for 30 minutes in the dark at room temperature.
# (§3) After incubation the samples were exposed to light from a laser Ceralas G2 (biolitec AG, Germany), 532 nm, power set to 0.5 W, irradiation time of […] via a light fiber from the bottom of the plate. The fluence rate for these settings was about 1.2 W/cm^2 (measured with Optometer P-9710, Gigahertz-Optik GmbH, Puchheim, Germany). With the irradiation time, the resulting energy fluence was about 100 J/cm^2.
# (§4) Control wells contained no Safranin O and were not exposed to laser light. The control samples for dark toxicity were only exposed to Safranin O (end concentration of 1 mM) without any illumination.
# (§5) After illumination the samples were removed from the wells of the plate, diluted with Tryptic Soy Broth and plated by using spiral plater Eddy Jet (iul Instruments, Barcelona, Spain) on Tryptic Soy agar plates. The numbers of colony-forming units (CFU/ml) were enumerated after adequate incubation by using colony counter Countermat Flash (iul Instruments, Barcelona, Spain).
# [2] = system: Staphylococcus aureus DSM1104 (ATCC 25923); conditions: cell suspensions in PBS and in PBS+10% horse blood serum, PBS+10% human plasma, 10 μM, 100 μM, 1 mM, 30 min dark incubation, about 100 J/cm^2
# Description: as §1, §2, §3, §4, §5
# [3] = system: Escherichia coli DSM 8698; conditions: in presence of blood serum or plasma in the treatment suspensions, 10 μM, 100 μM, 1 mM, 30 min dark incubation, about 100 J/cm^2
# Description: as §1, §2, §3, §4, §5
compound,measurement,setting,value
Cc1cc2nc3cc(C)c(N)cc3[n+](-c3ccccc3)c2cc1N.[Cl-] [Safranin O],killing of cell suspensions by PDT treatment,[1],sufficient killing
same,killing effect by PDT treatment,[2],very good killing effect
same,killing of cell suspensions by PDT treatment,[3],sufficient killing
